In US11052090B2, “Use of TREM-1 inhibitors for treatment, elimination and eradication of HIV-1 infection” (priority 2015, dated 2021):

What was measured:
[1] = tested on: HepG2 cells; conditions: 10 μM; cited from earlier work
[2] = tested on: HIV-1 (BaL); assay: microbe, parasite or virus in culture; format: cell-based
Experimental: Macrophages can be isolated as follows: Monocytes can be isolated from buffy coats of HIV-1 negative, HBV/HCV-negative donors with density gradient centrifugation coupled with enrichment for CD14+ monocytes with Rosette Sep antibody cocktail (Stem Cell Technologies, Vancouver, British Columbia). Cells can be seeded at a concentration of 1.0×10^6 cells/well for 1 hr at 37° C. and 5% CO2 to confer plastic adherence prior to repeated washes with 1×PBS. Macrophages can be maintained in medium containing 100 U/ml macrophage colony-stimulating factor (m-CSF, R&D Systems, Minneapolis, Minn.), supplemented with 20% fetal calf serum (Atlanta Biologicals, Lawrenceville, Ga.) and 1% penicillin/streptomyocin (Invitrogen, Carlsbad, Calif.) for 7 days (37° C., 5% CO2) prior to testing.
Macrophage infections: Macrophages can be cultured as described above for 7 days. For acute infection, macrophages can be serum starved for 8 hrs prior to infection and cultured for 2 hr in medium containing various concentrations of AZT (positive control) or Tofacitinib or Jakafi for 2 hr prior to removal of drug-containing medium and 4 hr infection with HIV-1BaL at 0.1 MOI in the absence of drug. Four hr after infection, virus can be removed and drug-containing medium returned to the cultures. Supernatants can be collected on day 7 post-infection and HIV-1 p24 can be quantified via ELISA (Zeptometrix Corporation, Buffalo, N.Y.). EC50 analysis can be performed using CalcuSyn software (BioSoft Corporation, Cambridge, UK).
Extracellular virus was quantified 7 days after infection (HIV-1 p24 ELISA).

[3] = tested on: HIV-1
Experimental: Human PBM cells can be isolated as follows: Lymphocytes can be isolated from buffy coats derived from healthy donors. Activated lymphocytes can be maintained for 72 hr in medium supplemented with 6 μg/ml phytohemagglutinin (PHA) (Cape Cod associates, East Falmouth, Mass.). Media can be comprised of RPMI media supplemented with 20% fetal calf serum, 1% penicillin/streptomyocin and 2% L-glutamine (Sigma Aldrich, San Jose, Calif.).
Human PBM cell infections: Testing can be performed in duplicate with at least 3 independent assays. Cells can be incubated in RPMI medium (HyClone, Logan, Utah) containing HR-IL2 (26.5 units/ml) and 20% fetal calf serum. Infections can be performed by adding HIV-ILA' followed by a further incubation at 37° C., 5% CO2, 1 hr prior to addition of drugs. Assays can be performed in 24 well plates (BD Biosciences, Franklin Lakes, N.J.). One ml of supernatant can be collected after 5 days in culture and then centrifuged at 12,000 rpm for 2 hr at 4° C. in a Jouan Br43i (Thermo Electron Corp., Marietta, Ohio). The product of the RT assay can be quantified using a Packard harvester and direct beta counter and the data can be analyzed as previously described (Schinazi et al., 1990).

[4] = tested on: primary human lymphocytes; assay: Proliferation and viability of activated PBM cells / PHA or PHA+IL-2 stimulated primary human lymphocytes; format: cell-based; conditions: for Viability, proliferation or total cell number not affected up to: human
Experimental: The toxicity of the compounds was assessed in Vero, human PBM, CEM (human lymphoblastoid), as described previously (see Schinazi R. F., Sommadossi J.-P., Saalmann V., Cannon D. L., Xie M.-Y., Hart G. C., Smith G. A. & Hahn E. F. Antimicrob. Agents Chemother. 1990, 34, 1061-67), and also in MØ cells. Cycloheximide was included as positive cytotoxic control, and untreated cells exposed to cell culture medium were included as negative controls. […]
Cell proliferation was evaluated in activated PBM cells incubated for 5 days with various concentrations of Tofacitinib and Jakafi, with cycloheximide as a positive control, and a “cells plus media” control used as well. The data is shown in FIG. 2, in terms of total cell number (10^6 cells) versus μM drug in medium.
Cell viability was evaluated in activated PBM cells incubated for 5 days with various concentrations of Tofacitinib and Jakafi, with cycloheximide as a positive control, and a “cells plus media” control used as well.
For all experiments, cells were incubated with media alone or drug-containing medium for 5 days prior to assessment of cell count and viability. […] Data are mean and standard deviations for at least three independent experiments conducted with at least four pooled donors, and duplicates within each experiment. Dotted bar represents mean cell count or viability for cells maintained in drug-free medium.

[5] = tested on: MØ cells; format: cell-based; conditions: human
Experimental: The toxicity of the compounds was assessed in Vero, human PBM, CEM (human lymphoblastoid), as described previously (see Schinazi R. F., Sommadossi J.-P., Saalmann V., Cannon D. L., Xie M.-Y., Hart G. C., Smith G. A. & Hahn E. F. Antimicrob. Agents Chemother. 1990, 34, 1061-67), and also in MØ cells. Cycloheximide was included as positive cytotoxic control, and untreated cells exposed to cell culture medium were included as negative controls.
The cytotoxicity IC50 was obtained from the concentration-response curve using the median effective method described previously (see Chou T.-C. & Talalay P. Adv. Enzyme Regul. 1984, 22, 27-55; Belen'kii M. S. & Schinazi R. F. Antiviral Res. 1994, 25, 1-11).

[6] = tested on: mice; conditions: mouse, in vivo; cited from earlier work
[7] = tested on: primary human macrophages; assay: Toxicity in primary human macrophages (zombie violet live/dead dye, FACS); format: cell-based; conditions: Macrophage

Compound: O=c1[nH]c(=O)n([C@@H]2O[C@H](CO)[C@@H](O)[C@@H]2F)cc1I [fialuridine, 1,2′-deoxy-2′-fluoro-1-D-arabinofuranosly-5-iodo-uracil]
- Mitochondrial morphology in electron micrographs [1]: enlarged mitochondria with morphological changes consistent with mitochondrial dysfunction

Compound: N#CC[C@H](C1CCCC1)n1cc(-c2ncnc3[nH]ccc23)cn1 [Jakafi]
- Inhibition of HIV-1 replication in MØ cells [2]: sub-micromolar
- Inhibition of HIV-1 replication in PBM cells [3]: sub-micromolar
- Proliferation versus cells exposed to media alone [4]: not significantly different
- Total cell proliferation [4]: do not affect
- Total cell viability [4]: do not affect
- Viability versus cells exposed to media alone [4]: not significantly different
- Viability, proliferation or total cell number not affected up to ([4]; 5 days): around 10 μM
- Viability, proliferation or total cell number not affected up to [5]: around 10 μM

Compound: LR6-2: EDAGEY, SEQ ID NO 5 (listed as Homo sapiens)
- Protection of mice against polymicrobial sepsis [6]: protect

Compound: Cc1cn([C@H]2C[C@H](N=[N+]=[N-])[C@@H](CO)O2)c(=O)[nH]c1=O [AZT, 3′-azido-3′-deoxythymidine]
- Inhibition of HIV-1 replication in primary human macrophages ([2]; HIV-1 BaL, p24 ELISA day 7): nanomolar inhibition
- EC50 ([2]; Human immunodeficiency virus 1, Macrophage, 168 h, HIV-1 BaL, extracellular virus 7 days after infection, read-out: Antiviral potency in primary human macrophages (EC50)): 10 ± 20 nM
- EC90 ([2]; Human immunodeficiency virus 1, Macrophage, 168 h, HIV-1 BaL, extracellular virus 7 days after infection, read-out: Antiviral potency in primary human macrophages (EC90)): 700 ± 200 nM
- IC50 [7]: > 100000 nM

Compound: LR6-3: GEYGCM, SEQ ID NO 6 (listed as Homo sapiens)
- Protection of mice against polymicrobial sepsis [6]: protect

Compound: C[C@@H]1CCN(C(=O)CC#N)C[C@@H]1N(C)c1ncnc2[nH]ccc12 [Tofacitinib, 3-{(3R,4R)-4 methyl-3-[methyl-(7H-pyrrolo[2,3-d]pyrimidin-4-yl)-amino]-piperidin-1-yl}-3-oxo-propionitrile]
- Inhibition of HIV-1 replication in MØ cells [2]: sub-micromolar
- Inhibition of HIV-1 replication in PBM cells [3]: sub-micromolar
- Proliferation versus cells exposed to media alone [4]: not significantly different
- Total cell proliferation [4]: do not affect
- Total cell viability [4]: do not affect
- Viability versus cells exposed to media alone [4]: not significantly different
- Viability, proliferation or total cell number not affected up to ([4]; 5 days): around 10 μM
- Viability, proliferation or total cell number not affected up to [5]: around 10 μM

Compound: C[C@@H]1C[C@@H]([C@H](O)CC2CC(=O)NC(=O)C2)C(=O)[C@@H](C)C1 [cycloheximide]
- Cell count and viability (positive control) ([4]; stimulated lymphocytes, 5 days): toxic in a dose dependent manner

Compound: LR6-1: LQEEDA, SEQ ID NO 4 (listed as Homo sapiens)
- Protection of mice against polymicrobial sepsis [6]: protect
